Test results from patent US20070270350A1, “Methods and Compositions for the Prevention and Treatment of Inflammatory Diseases or Conditions” (MUSC FOUNDATION FOR RESEARCH DEVELOPMENT, priority 2003, published 2007).

Tests used:
[1] = X-ALD patients; cited from earlier work
[2] = tested on: iNOS; assay: LPS-induced iNOS expression and iNOS promoter activity in primary astrocytes (AICAR); assay type: cell-based, rat
Protocol: Immunoblot Analysis: Cells were harvested in ice-cold lysis buffer (50 mM Tris-HCl, pH 7.4, containing 50 mM NaCl, 1 mM EDTA, 0.5 mM EGTA, 10% glycerol and protease inhibitor cocktail) and protein was estimated using Bradford reagent (Bio-Rad, USA). Fifty microgram of total protein/lane was separated by SDS-PAGE and blotted to nitrocellulose (Amersham Pharmacia Biotech). Blots were blocked for 1 h in 5% nonfat dry milk-TBS-0.1% Tween 20 and incubated overnight with primary antibody (1:1000) in 5% BSA-TBS-0.1% Tween 20 at 4° C. This was followed by incubation of 1 h with appropriate secondary peroxidase conjugated antibody (1:10,000, Sigma). Immunoreactivity was detected using the enhanced chemiluminescence detection method according to the manufacturer's instructions (Amersham Pharmacia Biotech) and subsequent exposure of the membrane to X-ray film. Antisense experiments: To decrease the levels of endogenous AMPK, astrocytes were pretreated for 48 h with 25 μm (of phosphothiorated antisense (AS) oligonucleotide ([NT]) directly against both the ? α1 and α2 ? subunits of AMPK (Culmsee et al., 2001) ? ? ? missense (MS) oligonucleotide ([NT]) was used in control cultures. Oligonucleotides were transfected with OligofectamineTM reagent as per manufacturer's instructions. Northern blot, gene array analysis and RT-PCR for cytokines expression: Total RNA was extracted with Trizol (Gibco) according to the manufacturer's protocol. Northern blot for iNOS was performed with 15 μg of RNA per reaction as described previously (Pahan et al., 1997). β-actin was used as control for RNA loading. Gene expression array for inflammatory cytokines (TNFα, IL-1β, IL-6 and IFN-γ) was used according to the manufacturer's protocol (Superarray). Signal quantitation was determined using imaging densitomter (Bio-Rad Lab, Hercules, Calif.). For RT-PCR, RNA was isolated from treated rat brain cerebral cortex by extracting in Trizol as above. cDNA was prepared from 5 μg of total RNA using poly dT as a primer and Moloney murine leukemia virus reverse transcriptase (Promega) as per manufacturer's instructions. 2 μl of cDNA was used to amplify the following products [given as product name, expected size, and forward (F) and reverse (R) primers used]: iNOS, 730 bp. ([NT]-1β, 623 bp. ([…]-α, 473 bp. ([…], 528 bp. […] Transcriptional assays: Primary astrocytes or microglial cell line (BV2) were transiently transfected with NF- ? B-or iNOS-luciferase reporter gene with ? -galactosidase in the presence or absence of dominant negative AMPKα2 or HA-IKK ? by lipofectamine-2000 (astrocytes) and lipofectamine-Plus (BV2, Invitrogen) according to the manufacturer instructions. pcDNA3 was used to normalize all groups to equal amounts of DNA. Luciferase activity was determined using a luciferase kit (Promega).

[3] = tested on: AMPK; assay: Phosphorylation of AMPK and ACC in primary astrocytes (immunoblot); assay type: cell-based, rat
Protocol: Immunoblot Analysis: Cells were harvested in ice-cold lysis buffer (50 mM Tris-HCl, pH 7.4, containing 50 mM NaCl, 1 mM EDTA, 0.5 mM EGTA, 10% glycerol and protease inhibitor cocktail) and protein was estimated using Bradford reagent (Bio-Rad, USA). Fifty microgram of total protein/lane was separated by SDS-PAGE and blotted to nitrocellulose (Amersham Pharmacia Biotech). Blots were blocked for 1 h in 5% nonfat dry milk-TBS-0.1% Tween 20 and incubated overnight with primary antibody (1:1000) in 5% BSA-TBS-0.1% Tween 20 at 4° C. This was followed by incubation of 1 h with appropriate secondary peroxidase conjugated antibody (1:10,000, Sigma). Immunoreactivity was detected using the enhanced chemiluminescence detection method according to the manufacturer's instructions (Amersham Pharmacia Biotech) and subsequent exposure of the membrane to X-ray film.
Antisense experiments: To decrease the levels of endogenous AMPK, astrocytes were pretreated for 48 h with 25 μm (of phosphothiorated antisense (AS) oligonucleotide (5′ […]-3′) directly against both the ? α1 and α2 ? subunits of AMPK (Culmsee et al., 2001) ? ? ? missense (MS) oligonucleotide (5′ […]-3′) was used in control cultures. Oligonucleotides were transfected with Oligofectamine™ reagent as per manufacturer's instructions.
AMPK and IKKα/ ? assays: AMPK activity was assayed in primary rat astrocytes as described (Kim et al., 2001). […]

[4] = tested on: rat model of focal cerebral ischemia (MCAO); assay: Focal cerebral ischemia model (20 min MCAO, reperfusion); assay type: in vivo; conditions: GSH up to 150 mg/kg body weight after the onset of ischemia
Protocol: Animals. A total of 60 male Sprague-Dawley rats (Charles River Laboratories, Wilmington, Mass.) weighing 250-300 g were used in this study. All animals received humane care in compliance with the Medical University of South Carolina's guidance and the National Research Council's criteria for humane care as outlined in ‘Guide for the Care and Use of Laboratory Animals’. Body temperature was monitored by a rectal probe and maintained at 37±0.5° C. by a homeothermic blanket control unit (Harvard Apparatus, Holliston, Mass.). Cranial temperature and mean arterial blood pressure were measured by HSE Plugsys TAM-D and TCAM (Harvard Apparatus) respectively.
Experimental design and administration of drugs. All animal procedures were approved by the Medical University of South Carolina Animal Review Committee and were in accordance with the guidelines for animal use published by the National Institute of Health. […]
Measurement of physiological variables. The physiological variables were measured before, during MCA occlusion, at reperfusion and 30 min after reperfusion. The rectal temperature was monitored and maintained at about 37 to 37.6° C. […]
Evaluation of ischemic infarct and neurological score. […] The infarct area, outlined in white, was acquired by image-analysis software (Photoshop 4.0 Adobe System) and measured by NIH image software. […]

In the case of `CCCCCCCC/C=C\CCCCCCCC(=O)OCC(COC(=O)CCCCCCC/C=C\CCCCCCCC)OC(=O)CCCCCCC/C=C\CCCCCCCC` [trioleate], the “reduction of VLCFA” value [1] is listed as 50%.
With `Nc1ncnc2c1c(I)cn2[C@@H]1O[C@H](CO)[C@@H](O)[C@H]1O` [5-iodotubercidin] the “effect on inhibition induced by AICAR on iNOS protein expression” value ([2]; adenosine kinase inhibitor with AICAR and LPS, 24 h) was “reverse the inhibition” and the “effect on AICAR induced phosphorylation of AMPK and ACC” value ([3]; adenosine kinase inhibitor 0.1 μM, 30 min before AICAR 1 mM) was “blocked”.
With `N[C@@H](CCC(=O)N[C@@H](CS)C(=O)NCC(=O)O)C(=O)O` [GSH, gamma-glutamylcysteinylglycine] the “protective effect in ischemia” value [4] was “no protective effect”.
With “5′ CGCCCGTCGTCGTGCTTCTGC-3′ (phosphorothioate, further chemistry not given here) [antisense (AS), phosphothiorated antisense oligonucleotide against the α1 and α2 subunits of AMPK]” the “LPS mediated iNOS protein expression” value ([2]; AMPK antisense 25 μM, then LPS 1 μg/ml) was “significantly induced” and the “catalytic subunit AMPKα1 level (immunoblot)” value ([3]; 25 μM antisense, 48 h) was “decreased”.
